Source: article PMC11855827, “High-Throughput Screening of Five Compound Libraries for Anthelmintic Activity and Toxicity Leads to the Discovery of Two Flavonoid Compounds” (International Journal of Molecular Sciences, 2025)
Like-named read-outs stand apart in the source and are kept apart here.

System: C. elegans
Experiment: microbe, parasite or virus in culture
Conditions: Caenorhabditis elegans
[1] = 0 h, read-out: Percentage of motility inhibition 0 h, Table S2, C. elegans SS assay, 110 μM, 0 h, averages of 4 data points
[2] = 24 h, read-out: Percentage of motility inhibition 24 h, Table S2, C. elegans SS assay, 110 μM, 24 h, averages of 4 data points
[3] = 0 h, read-out: Percentage of motility inhibition 0 h
[4] = 24 h, read-out: Percentage of motility inhibition 24 h

SMILES | inhibition at 110 µM [1] [%] | inhibition at 110 µM [2] [%] | inhibition at 110 µM [3] [%] | inhibition at 110 µM [4] [%]
COC(=O)C1=CO[C@@H](O[C@@H]2O[C@H](CO)[C@@H](O)[C@H](O)[C@H]2O)[C@H]2[C@@H]1[C@H](O)C[C@]2(C)O [Shanzhiside methyl ester] | 32 | 38 | – | –
CCCCC/C=C/C(=O)CCc1ccc(O)c(OC)c1 [Shogaol] | 0 | 5 | – | –
COc1cc(C2Oc3cc([C@H]4Oc5cc(O)cc(O)c5C(=O)[C@@H]4O)ccc3OC2CO)ccc1O (stereo partly shown) [Silibinin] | 0 | 0 | – | –
COc1cc([C@H]2Oc3cc([C@H]4Oc5cc(O)cc(O)c5C(=O)[C@@H]4O)ccc3O[C@@H]2CO)ccc1O [Silybin A] | 22 | 20 | – | –
COc1cc([C@@H]2[C@H]3CO[C@@]4(O)C(=O)[C@@H]2C=C([C@H]2Oc5cc(O)cc(O)c5C(=O)[C@@H]2O)[C@@H]34)ccc1O [Silydianin] | 17 | 4 | – | –
COc1ccc2c(O[C@@H]3C[C@H]4C(=O)N[C@]5(C(=O)NS(=O)(=O)C6CC6)C[C@H]5/C=C\CCCCN(C)C(=O)[C@@H]4C3)cc(-c3nc(C(C)C)cs3)nc2c1C [Simeprevir] | 2 | 25 | – | –
COc1ccc(-c2cc(=O)c3c(OC)c(OC)c(OC)cc3o2)cc1OC [Sinensetin] | 0 | 0 | – | –
COc1ccc2c(OC)c3ccoc3nc2c1OC [Skimmianine] | 0 | 15 | – | –
COc1cccc(O)c1-c1cc(=O)c2c(O)c(OC)c(OC)c(OC)c2o1 [Skullcapflavone II] | – | – | 4 | 6
C[C@@H]1CC[C@@]2(NC1)O[C@H]1C[C@H]3[C@@H]4CC=C5C[C@@H](O[C@@H]6O[C@H](CO)[C@@H](O[C@@H]7O[C@@H](C)[C@H](O)[C@@H](O)[C@H]7O)[C@H](O)[C@H]6O[C@@H]6O[C@@H](C)[C@H](O)[C@@H](O)[C@H]6O)CC[C@]5(C)[C@H]4CC[C@]3(C)[C@H]1[C@@H]2C [Solamargine] | 0 | 0 | – | –
C[C@H]1CC[C@@H]2[C@@H](C)[C@H]3[C@H](C[C@H]4[C@@H]5CC=C6C[C@@H](O)CC[C@]6(C)[C@H]5CC[C@]34C)N2C1 [Solanidine] | 0 | 0 | – | –
C[C@@H]1CC[C@@]2(NC1)O[C@H]1C[C@H]3[C@@H]4CC=C5C[C@@H](O)CC[C@]5(C)[C@H]4CC[C@]3(C)[C@H]1[C@@H]2C [Solasodine] | 12 | 20 | – | –
C[C@@H]1CC[C@@]2(NC1)O[C@H]1C[C@H]3[C@@H]4CC=C5C[C@@H](O[C@@H]6O[C@H](CO)[C@H](O)[C@H](O[C@@H]7O[C@H](CO)[C@@H](O)[C@H](O)[C@H]7O)[C@H]6O[C@@H]6O[C@@H](C)[C@H](O)[C@@H](O)[C@H]6O)CC[C@]5(C)[C@H]4CC[C@]3(C)[C@H]1[C@@H]2C [Solasonine] | 0 | 0 | – | –
C=C1[C@H]2C[C@@]3([C@@H]1O)[C@@H](CC2=O)[C@]12[C@@H]4C[C@H]3[C@H]1N(CC)C[C@]4(C)CC[C@@H]2O [Songorine] | – | – | 5 | 9
O=C1C=CC[C@@H]2[C@H]3CCCN4CCC[C@@H](CN12)[C@@H]34 [Sophocarpine] | 11 | 9 | – | –
C=C(C)[C@H](CC=C(C)C)Cc1c(O)cc(O)c2c1O[C@H](c1ccc(O)cc1O)CC2=O [Sophoraflavanone G] | – | – | 55 | 4
O=c1c(-c2ccc(O[C@@H]3O[C@H](CO)[C@@H](O)[C@H](O)[C@H]3O)cc2)coc2cc(O)cc(O)c12 [Sophoricoside] | – | – | 0 | 9
CC1(C)C[C@H]2C3=CC[C@@H]4[C@@]5(C)CC[C@H](O)[C@](C)(CO)[C@@H]5CC[C@@]4(C)[C@]3(C)CC[C@@]2(C)[C@H](O)[C@@H]1O [Soyasapogenol A] | 5 | 3 | – | –
CC1(C)C[C@@H](O)[C@]2(C)CC[C@]3(C)C(=CC[C@@H]4[C@@]5(C)CC[C@H](O)[C@](C)(CO)[C@@H]5CC[C@]43C)[C@@H]2C1 [Soyasapogenol B] | 9 | 39 | – | –

SMILES | inhibition at 110 µM [1] [%] | inhibition at 110 µM [2] [%] | inhibition at 110 µM [3] [%] | inhibition at 110 µM [4] [%]
C[C@@H]1CN(c2c(F)c(N)c3c(=O)c(C(=O)O)cn(C4CC4)c3c2F)C[C@H](C)N1 [Sparfloxacin] | 37 | 11 | – | –
O=C1NCN(c2ccccc2)C12CCN(CCCOc1ccc(F)cc1)CC2 [Spiramide] | 49 | 6 | – | –
Cc1cn([C@H]2C=C[C@@H](CO)O2)c(=O)[nH]c1=O [Stavudine] | 25 | 3 | – | –
CCCCCCCCCCCCCCCCCC(=O)O [Stearic acid] | 0 | 1 | – | –
C=C1C[C@@]23CC[C@H]4[C@@](C)(CCC[C@@]4(C)C(=O)O)[C@@H]2CC[C@]1(O)C3 [Steviol] | 13 | 34 | – | –
C=C1C[C@@]23CC[C@H]4[C@@](C)(CCC[C@@]4(C)C(=O)O[C@@H]4O[C@H](CO)[C@@H](O)[C@H](O)[C@H]4O)[C@@H]2CC[C@]1(O[C@@H]1O[C@H](CO)[C@@H](O)[C@H](O)[C@H]1O[C@@H]1O[C@H](CO)[C@@H](O)[C@H](O)[C@H]1O)C3 [Stevioside] | 15 | 0 | – | –
O=C(O)CCC(=O)O [Succinic acid] | 14 | 15 | – | –
O=C(O)CCC(=O)Nc1ccc(S(=O)(=O)Nc2nccs2)cc1 [Succinylsulfathiazole] | 31 | 17 | – | –
CC1(C)[C@H](C(=O)O)N2C(=O)C[C@H]2S1(=O)=O [Sulbactam] | – | – | 1 | 9
Nc1ccc(S(=O)(=O)Nc2ccc(Cl)nn2)cc1 [Sulfachloropyridazine] | 14 | 0 | – | –
Nc1ccc(S(=O)(=O)Nc2ncccn2)cc1 [Sulfadiazine] | 14 | 7 | – | –
COc1cc(NS(=O)(=O)c2ccc(N)cc2)nc(OC)n1 [Sulfadimethoxine] | 15 | 3 | – | –
COc1ncnc(NS(=O)(=O)c2ccc(N)cc2)c1OC [Sulfadoxine] | 18 | 5 | – | –
[H]/N=C(/N)NS(=O)(=O)c1ccc(N)cc1 [Sulfaguanidine] | 22 | 8 | – | –
COc1nccnc1NS(=O)(=O)c1ccc(N)cc1 [Sulfalene] | 2 | 15 | – | –
Cc1ccnc(NS(=O)(=O)c2ccc(N)cc2)n1 [Sulfamerazine] | 12 | 7 | – | –
COc1cnc(NS(=O)(=O)c2ccc(N)cc2)nc1 [Sulfameter] | 25 | 8 | – | –
Cc1cc(C)nc(NS(=O)(=O)c2ccc(N)cc2)n1 [Sulfamethazine] | 5 | 3 | – | –
Cc1nnc(NS(=O)(=O)c2ccc(N)cc2)s1 [Sulfamethizole] | 4 | 0 | – | –

SMILES | inhibition at 110 µM [1] [%] | inhibition at 110 µM [2] [%] | inhibition at 110 µM [3] [%] | inhibition at 110 µM [4] [%]
Cc1cc(NS(=O)(=O)c2ccc(N)cc2)no1 [Sulfamethoxazole] | 30 | 11 | – | –
COc1ccc(NS(=O)(=O)c2ccc(N)cc2)nn1 [Sulfamethoxypyridazine] | 2 | 8 | – | –
COc1cc(NS(=O)(=O)c2ccc(N)cc2)ncn1 [Sulfamonomethoxine] | 6 | 1 | – | –
Nc1ccc(S(N)(=O)=O)cc1 [Sulfanilamide] | 21 | 7 | – | –
Nc1ccc(S(=O)(=O)Nc2ccnn2-c2ccccc2)cc1 [Sulfaphenazole] | 0 | 3 | – | –
Cc1noc(NS(=O)(=O)c2ccc(N)cc2)c1C [Sulfisoxazole] | 9 | 7 | – | –
CC(=O)NC[C@H]1CN(c2ccc(N3CCSCC3)c(F)c2)C(=O)O1 [Sutezolid] | 16 | 4 | – | –
COc1cc(O)c2c(=O)c3c(O[C@@H]4O[C@H](CO)[C@@H](O)[C@H](O)[C@H]4O)ccc(O)c3oc2c1 [Swertianolin] | 11 | 0 | – | –
COc1cc(C=O)cc(OC)c1O [Syringaldehyde] | – | – | 4 | 3
CC[C@]12C=CCN3CC[C@]4(C(=C(C(=O)OC)C1)Nc1ccccc14)[C@@H]32 [Tabersonine] | 0 | 1 | – | –
CCN1C[C@]2(COC)CC[C@H](OC)[C@]34C1[C@H](C[C@H]23)[C@@]1(O)C[C@H](OC)[C@H]2C[C@@H]4[C@@H]1[C@H]2O [Talatisamine] | 6 | 0 | – | –
COc1ccc(-c2oc3cc(O)cc(O)c3c(=O)c2O)cc1O [Tamarixetin] | 20 | 10 | – | –
COc1ccc(-c2cc(=O)c3c(OC)c(OC)c(OC)c(OC)c3o2)cc1 [Tangeretin] | 14 | 8 | – | –
Cc1coc2c1C(=O)C(=O)c1c-2ccc2c(C)cccc12 [Tanshinone I] | 0 | 3 | – | –
NCCS(=O)(=O)O [Taurine] | 8 | 0 | – | –
C[C@H](CCC(=O)NCCS(=O)(=O)O)[C@H]1CC[C@H]2[C@@H]3CC[C@@H]4C[C@H](O)CC[C@]4(C)[C@H]3C[C@H](O)[C@]12C [Taurodeoxycholic acid] | 0 | 7 | – | –
O=C1c2c(O)cc(O)cc2OC(c2ccc(O)c(O)c2)C1O (stereo not shown) [Taxifolin] | 10 | 14 | – | –
C[C@]1(Cn2ccnn2)[C@H](C(=O)O)N2C(=O)C[C@H]2S1(=O)=O [Tazobactam] | 16 | 21 | – | –
